This note sets out measurements from US4870098A, “Antagonists of leukotriene D4” (G. D. Searle & Co., priority 1989, dated 1989).

Test [1] has as its target T1, LTD4 receptor (guinea pig lung receptors) (Cavia porcellus, UniProt Q2NNR5).
T1 construct: isolated from guinea pig lung membrane; from tissue; host or cells: guinea pig lung membrane
T1 sequence (Q2NNR5 1-340): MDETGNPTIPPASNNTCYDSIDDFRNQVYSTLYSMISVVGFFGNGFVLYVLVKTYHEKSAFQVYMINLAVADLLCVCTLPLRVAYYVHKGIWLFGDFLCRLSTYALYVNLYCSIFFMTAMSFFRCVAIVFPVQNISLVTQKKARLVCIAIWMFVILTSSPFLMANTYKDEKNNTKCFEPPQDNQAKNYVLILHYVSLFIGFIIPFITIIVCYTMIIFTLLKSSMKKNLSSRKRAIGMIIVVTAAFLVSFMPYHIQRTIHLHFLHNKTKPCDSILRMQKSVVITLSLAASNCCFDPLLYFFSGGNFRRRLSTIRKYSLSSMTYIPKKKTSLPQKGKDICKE
In words: Leukotriene Receptor Binding Assay (LTD4 receptor binding, guinea pig lung membrane). To be noted: LTD4 binding to guinea pig lung membrane receptors; read-out: LTD4 antagonism: Receptor Binding Assay (IC50). The method, then: Leukotriene Receptor Binding Assay
The in vitro LTD4 receptor binding assay is carried out as follows:
Specific binding of titrated LTD4 to a fixed number of guinea pig lung receptors, isolated from guinea pig lung membrane, is measured in the presence and absence of test compound. The initial screening dose (1×10^-5 M) is considered active if the specific binding of the LTD4 is reduced by 45% or more. Active compounds are tested in a dose-response manner to determine IC50 values.

The target in test [2] is T2, guinea pig ileum (LTD4-induced contraction) (Cavia porcellus, UniProt Q2NNR5).
T2 construct: Fresh segments of guinea pig ileum; from tissue; host or cells: guinea pig ileum segments
T2 sequence (Q2NNR5 1-340): T1 sequence (Q2NNR5 1-340)
In words: LTD4 Antagonism in Guinea Pig Ileum. The following applies: pA2, negative log of antagonist concentration required to produce a dose-ratio of 2. It counts as cell-based. The method, then:
LTD4 Antagonism in Guinea Pig Ileum
Fresh segments of guinea pig ileum were suspended in 2 ml. tissue baths containing oxygenated modified Tyrodes solution. After an equilibration period, an agonist dose-response curve was generated by exposing each tissue to 4 different LTD4 doses and measuring the ensuing contractile heights. The ileum segments were washed and rested between exposures to agonist. Following this, the tissues were incubated with a single concentration of test compound and the agonist dose-response procedure was repeated. The dose ratio is a measure of the antagonist's ability to shift the agonist dose-response curve to the right. It is derived as the concentration of agonist necessary to reach a given response level in the presence (A') versus the absence (A) of antagonist. For example, if the test concentration of compound had no effect on the agonist-induced response (A'=A) the dose-ratio would approximate 1. […] One dose-ratio value is determined for each strip of ileum used to test antagonist. […] Schild analysis examines the linearity of the function described by the dose-ratios written as log [(A'/A)-1] versus antagonist concentration. If the linearity is […] and the slope approximates 1, inhibition is considered to be competitive. The pA2 is the negative log of the antagonist concentration required to produce a dose-ratio of 2. […]

Test [3] concerns LTD4-induced bronchoconstriction. The test can be described thus: In Vivo Bronchoconstriction Assay (LTD4-induced intratracheal insufflation pressure increase). More on the design: species or system guinea pig (Hartly). To be noted: guinea pig, 2000 units of LTD4 IV. The method, then: The compounds are tested in vivo as follows. Adult male fasted Hartly guinea pigs weighing 300-350 g are pretreated with pyrilamine and indomethacin to block the bronchoconstricture effects of endogenous histamine and the synthesis of thromboxane A2 respectively. Compounds of the invention are administered IV or IG at appropriate times prior to the IV administration of 2000 units of LTD4. Intratracheal pressure is monitored prior to and subsequent to LTD4 in animals anesthetized with pentobarbital and attached to a rodent respirator. Compounds which antagonize the direct component of LTD4 action on respiratory smooth muscle inhibit intratracheal insufflation pressure increases (P< or =0.05) caused by LTD4. FPL 55712 is used as a control.

For the next test, the target named is T3, LTB4 receptor (Homo sapiens, UniProt Q15722).
T3 construct: Neutrophils are purified from venous blood of normal human donors; endogenous in cells; host or cells: human neutrophils from venous blood
T3 sequence (Q15722 whole entry): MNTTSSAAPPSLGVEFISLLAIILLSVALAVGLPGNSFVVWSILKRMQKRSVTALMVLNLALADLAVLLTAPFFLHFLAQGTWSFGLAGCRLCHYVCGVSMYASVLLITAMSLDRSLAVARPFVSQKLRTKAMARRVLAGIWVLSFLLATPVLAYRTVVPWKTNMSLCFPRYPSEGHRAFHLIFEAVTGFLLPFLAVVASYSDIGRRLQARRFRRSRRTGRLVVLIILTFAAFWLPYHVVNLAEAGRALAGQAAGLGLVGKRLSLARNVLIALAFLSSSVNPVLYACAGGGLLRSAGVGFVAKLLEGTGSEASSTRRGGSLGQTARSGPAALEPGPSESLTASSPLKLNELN
In words: LTB4 Receptor Binding Assay (human neutrophils). To be noted: 0.6 nano M (3H) LTB4, 0° C., 45 minutes, read-out: LTB4 antagonism: Receptor Binding Assay (IC50). The method, then: (§1) Preparation of Human Neutrophils
(§2) Neutrophils are purified from venous blood of normal human donors using standard techniques of dextran sedimentation, centrifugation on Histopaque sterile solution (Sigma) and hypotonic lysis of erythrocytes (Boyum, A., Isolation of Leukocytes From Human Blood: Further Observations. Scand. J. Lab. Clin. Invest. 21 (Suppl. 97): 31, 1968). The purity of isolated neutrophils was ≥95%.
LTB4 Receptor Binding Assay
Neutrophils (4-6×10^6) in 1 ml Hanks' balanced salt solution containing 10 mM HEPES buffer (HBSS), pH 7.4 and […] nordihydroguaiaretic acid were incubated with 0.6 nano M (^3 H) LTB4 in the presence or absence of test compounds. The incubation was carried out at 0° C. for 45 minutes and terminated by adding 5 ml of ice-cold HBSS followed by rapid filtration of incubation mixture under vacuum through GF/C glass fiber filters. The filters were further washed with 10 ml HBSS and radioactivity was determined. […] All data refer to specific binding.

The test system of test [4] is human neutrophils (myeloperoxidase release). The test can be described thus: Human Neutrophil Degranulation Assay. It is filed as cell-based. To be noted: table head LTB4 antagonism (method: LTB4 5×10^-8 M or f-met-leu-phe 5×10^-6 M). The method, then:
as §1, §2
Human Neutrophil Degranulation Assay
Neutrophil degranulation was determined by measuring the release of myeloperoxidase activity into the incubation medium. Neutrophils (3×10^6) in 1 ml HBSS solution were preincubated with cytochalasin B(5μg) at 37° C. for 5 minutes, followed by preincubation with test compounds for 7 minutes. […] The supernatants and the pellet-extracts were then assayed spectrophotometrically for myeloperoxidase activity by determining the rate of decomposition of H2 O2 with o-dianisidine as hydrogen donor as described by Renlund, et al. (Renlund, D. G., MacFarlane, J. L., Christensen, R. D., Lynch, R. E., and Rothstein, G., A Quantitive And Sensitive Method for Measurement of Myeloperoxidase, Clinical Research 28:75A, 1980). Myeloperoxidase activity released into the supernatant was expressed as the percent of the average total activity (pellet plus supernatant).

The test system of test [5] is LTB4-induced dermal neutrophil chemotaxis (MPO activity). In words: Guinea Pig LTB4-Induced Dermal Chemotaxis. It counts as in vivo. To be noted: Cavia porcellus, method: 35 ng LTB4 intradermal, compound IV or IG, MPO at 4 hours, read-out: LTB4 antagonism: Guinea Pig LTB4 Induced Dermal Chemotaxis (IC50). The method, then:
Guinea Pig LTB4 -Induced Dermal Chemotaxis
Test compound was administered intravenously or intragastrically at various times prior to the injection of leukotriene B4 (LTB4). LTB4 was diluted in phosphate buffered saline (PBS) and 35 ng in 0.2 ml were injected intradermally into the shaven backs of anesthetized guinea pigs. PBS was injected as control. Four hours later, animals were sacrificed, skins removed and stored frozen (-70° C.). Injection sites were removed with a skin punch and mechanically homogenized (Polytron, Brinkmann Instruments). Myeloperoxidase (MPO), a marker enzyme for neutrophils, was extracted by 0.5% hexadecyltrimethylammonium bromide in 50 mM potassium phosphate buffer (pH 6.0), using sonication and freeze-thaw procedures. After centrifugation (40,000×g, 30 minutes), enzyme activities in the supernatants were assayed spectrophotometrically (A460) by measuring the decomposition of hydrogen peroxide with ortho-dianisidine after 15 minutes. […] In guinea pigs the level of MPO activity increased with the amount of LTB4 injected.

On to `CCCc1c(OCCCSCC2COC3(CCC(CC(=O)O)C3)S2)ccc(C(C)=O)c1O` (stereo not drawn) [Example 2, 3-[[[3-(4-acetyl-3-hydroxy-2-propylphenoxy)propyl]thio]methyl]-1-oxa-4-thiaspiro[4.4]nonane-7-acetic acid], for which the IC50 in test [1] was determined as 6.15 µM; at LTB4 receptor, 0.8 µM; in test [4] it was 7.3 µM; in test [5], 8.3 µM. For the same compound, the Kb in test [2] was 0.0457 µM. The “LTD4 antagonism: In Vivo Bronchoconstriction Assay (% Inhibition at 5 mpk. IV)” value in test [3] is 94.7%.

The term IC50 denotes the concentration at which inhibition is half-maximal. The Kb is the equilibrium dissociation constant of an antagonist, usually derived from a functional assay.
